{"source": "patent US9724352B2", "about": "“Pyrrolo[2,1-F[1,2,4]triazine compounds, preparation methods and applications thereof” (Shanghai Institute of Materia Medica, Chinese Academy of …, priority 2012, dated 2017)", "key": {"PI3Kα": {"target": "PI3Kα (Homo sapiens (Human), UniProt P42336)", "sequence (P42336 whole entry)": "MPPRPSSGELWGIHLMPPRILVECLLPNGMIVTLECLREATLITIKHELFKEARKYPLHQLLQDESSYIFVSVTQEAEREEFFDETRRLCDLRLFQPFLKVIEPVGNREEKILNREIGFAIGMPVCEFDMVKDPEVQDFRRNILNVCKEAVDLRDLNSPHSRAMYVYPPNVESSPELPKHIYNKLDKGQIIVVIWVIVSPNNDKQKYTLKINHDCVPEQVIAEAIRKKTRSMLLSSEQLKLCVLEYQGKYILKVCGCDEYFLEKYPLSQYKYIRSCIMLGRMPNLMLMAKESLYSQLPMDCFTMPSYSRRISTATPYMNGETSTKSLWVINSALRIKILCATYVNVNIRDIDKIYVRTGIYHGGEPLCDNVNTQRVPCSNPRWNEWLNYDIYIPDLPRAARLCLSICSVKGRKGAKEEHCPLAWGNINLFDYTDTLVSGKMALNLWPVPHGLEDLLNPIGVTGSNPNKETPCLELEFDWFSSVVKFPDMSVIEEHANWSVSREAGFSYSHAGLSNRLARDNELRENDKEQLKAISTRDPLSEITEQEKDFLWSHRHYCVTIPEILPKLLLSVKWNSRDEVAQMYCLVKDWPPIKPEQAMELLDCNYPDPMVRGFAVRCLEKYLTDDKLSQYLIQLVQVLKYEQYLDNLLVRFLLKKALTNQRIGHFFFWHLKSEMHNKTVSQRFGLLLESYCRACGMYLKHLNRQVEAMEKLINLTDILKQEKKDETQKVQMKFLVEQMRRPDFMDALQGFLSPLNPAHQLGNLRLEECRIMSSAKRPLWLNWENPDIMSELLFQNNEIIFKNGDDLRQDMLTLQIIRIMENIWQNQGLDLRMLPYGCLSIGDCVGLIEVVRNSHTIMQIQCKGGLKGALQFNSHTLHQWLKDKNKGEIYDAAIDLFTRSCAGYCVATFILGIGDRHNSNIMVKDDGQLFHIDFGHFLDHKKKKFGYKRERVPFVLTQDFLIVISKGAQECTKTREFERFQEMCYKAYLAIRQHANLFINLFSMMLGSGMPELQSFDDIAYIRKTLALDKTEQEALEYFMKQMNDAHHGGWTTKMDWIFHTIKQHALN", "sequence (P27986 whole entry partner)": "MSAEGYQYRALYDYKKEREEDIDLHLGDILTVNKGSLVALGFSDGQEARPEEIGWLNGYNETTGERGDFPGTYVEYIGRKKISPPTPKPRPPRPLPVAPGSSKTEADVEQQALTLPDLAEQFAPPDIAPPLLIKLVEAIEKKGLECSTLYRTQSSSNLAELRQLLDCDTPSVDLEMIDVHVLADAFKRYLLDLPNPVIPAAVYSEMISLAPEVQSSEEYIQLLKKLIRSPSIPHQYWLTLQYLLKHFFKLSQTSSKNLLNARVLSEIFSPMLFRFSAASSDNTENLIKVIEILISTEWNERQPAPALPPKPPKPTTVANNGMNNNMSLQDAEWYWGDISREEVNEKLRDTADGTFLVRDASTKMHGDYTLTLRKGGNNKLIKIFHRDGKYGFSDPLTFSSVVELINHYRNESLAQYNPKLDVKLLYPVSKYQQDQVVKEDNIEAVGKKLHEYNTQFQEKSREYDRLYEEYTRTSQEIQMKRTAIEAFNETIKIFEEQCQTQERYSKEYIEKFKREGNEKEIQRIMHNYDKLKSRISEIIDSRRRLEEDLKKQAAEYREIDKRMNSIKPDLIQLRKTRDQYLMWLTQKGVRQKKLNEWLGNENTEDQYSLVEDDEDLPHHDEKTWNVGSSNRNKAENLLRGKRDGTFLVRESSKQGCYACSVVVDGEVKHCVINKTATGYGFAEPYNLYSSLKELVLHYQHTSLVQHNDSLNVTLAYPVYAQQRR", "experiment": "Inhibition on PI3K kinase activity (Kinase-Glo Plus luminescent assay)", "assay_type": "biochemical", "conditions": "2 μM ATP, 1 hour at room temperature", "procedure": "The activity of purified kinase was detected with Kinase-Glo® Plus kinase luminescent assay by measuring the amount of the remaining […] in the solution after the kinase reaction was completed. […] After reaction was performed for 1 hour at room temperature, 10 μL of Kinase Glo-Plus mixture was added and incubated for 1 hour to quench the reaction."}, "[1]": {"test_system": "human rhabdomyosarcoma Rh30 cells", "experiment": "Proliferation of Rh30 cells (sulforhodamine B)", "assay_type": "cell-based", "conditions": "Homo sapiens, Rh30, 72 h; read-out: IC50 against proliferation of Rh30 cells", "summary_of_the_method": "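Rh30 cells (3000/well) were treated after adherence with compound at 10, 3, 1, 0.3 or 0.1 μM for 72 h. TCA-fixed cells were stained with sulforhodamine B, dye solubilised in Tris buffer and OD read at 560 nm.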"}, "[2]": {"test_system": "human esophagus cancer KYSE 410 xenograft", "experiment": "Growth of KYSE 410 xenograft subcutaneously transplanted in nude mouse", "assay_type": "in vivo", "conditions": "for Relative tumor proliferation rate T/C: 50 mg/kg p.o. once every day", "procedure": "Well-developed tumors in nude mice were cut into 1.5 mm3 fragments and transplanted s.c. into the right flank of nude mice under sterile conditions. The diameters of subcutaneously transplanted tumours in nude mice were measured with a vernier calipe. When the tumour reached a volume 170 mm3, the mice were randomly assigned into two treatment groups: CYH33 50 mg/kg group or BYL-719 50 mg/kg group. Control groups were given the same amount of normal saline, and treatment groups received tested compounds (p.o). Compounds were administered orally once every day for 3 weeks. Evaluation index of antitumor activity was relative tumor proliferation rate T/C (%), the calculation formula of which was as follows: T/C (%)=(TRTV/CRTV)×100%, TRTV:RTV of treatment group; CRTV:RTV of negative control group."}}, "data": [{"molecule": "COC(=O)Nc1cc(C(F)(F)F)c(-c2nc(N3CCOCC3)c3cc(CN4CCN(S(C)(=O)=O)CC4)cn3n2)cn1", "note": "[Compound I-33, Methyl (5-(6-((4-(methylsulfonyl)piperazin-1-yl)methyl)-4-morpholinopyrrolo[2,1-f][1,2,4]triazin-2-yl)-4-(trifluoromethyl)pyridin-2-yl)carbamate]", "values": [{"measurement": "IC50", "setting": "PI3Kα", "result": 2.84, "unit": "nM"}, {"measurement": "IC50", "setting": "[1]", "result": 2520, "unit": "nM"}, {"measurement": "growth of KYSE 410 xenograft (in words)", "setting": "[2]; 50 mg/kg p.o. every day for 3 weeks", "result": "significantly slowed down"}, {"measurement": "Relative tumor proliferation rate T/C", "setting": "[2]; d0", "result": 100.00, "unit": "%"}, {"measurement": "Relative tumor proliferation rate T/C", "setting": "[2]; d3", "result": 65.56, "unit": "%"}, {"measurement": "Relative tumor proliferation rate T/C", "setting": "[2]; d7", "result": 30.11, "unit": "%"}, {"measurement": "Relative tumor proliferation rate T/C", "setting": "[2]; d10", "result": 25.23, "unit": "%"}, {"measurement": "Relative tumor proliferation rate T/C", "setting": "[2]; d14", "result": 13.79, "unit": "%"}, {"measurement": "Relative tumor proliferation rate T/C", "setting": "[2]; d17", "result": 10.51, "unit": "%"}, {"measurement": "Relative tumor proliferation rate T/C", "setting": "[2]; d21", "result": 9.13, "unit": "%"}]}]}
